Test results from US20160010094A1, “TRANSGENIC CELL SELECTION” (UNIVERSITE DE GENEVE, priority 2013, published 2016).

Assays:
[1] = tested on: Hela cells expressing HU and TMTX resistance gene; experiment: Hydroxyurea and Trimetrexate cytotoxic assay: selective enrichment of transduced (GFP positive) Hela cells by FACS; type: cell-based; details: three days, FIG. 2
Experimental: Control and transduced Hela cells were incubated with HU and TMTX for 3 days, after which survival rate of both cell population were measured by FACS analysis. Hela cells were transduced with lentivector expressing GFP and the Hydroxyurea or Trimetrexate resistance genes. Three to five days after transduction, cell transduction efficiency was determined by measuring GFP fluorescence. Transduced Hela cells were treated with the appropriate concentration of cytotoxic compounds and survival rate were measured by FACS analysis. Next, the ability of either HU or TMTX to selectively enrich transduced Hela cells was evaluated by FACS. Hela cells were transduced as outlined above and then cultured in control media or media including 25 μM HU, 100 μM HU, 1 nM TMTX or 10 nM TMTX. After culture in the indicated conditions for three days, the proportion of transduced cells (GFP positive) versus non-transduced cells was determined by FACS and the results plotted.

[2] = tested on: GFP expressing blood cells; experiment: In vivo selective enrichment of blood cells expressing HU resistance gene after bone marrow transplantation; set-up: species or system C57/B16 mice
Experimental: FIG. 3: In vivo selective enrichment of blood cells expressing HU and TMTX resistance gene. Bone marrow transplantation experiments were performed in C57/b16 mice. Total bone marrow was obtained from large bones of C57/B16 mice and maintained for 24 h in IMDM medium supplemented with 100 ng/ml of SCF. Bone marrow cells were then transduced with 10^9 lentivector particles for 8 hours before being injected into the tail vein of irradiated C57/B16 mice. Six to eight weeks later, blood samples were taken and GFP expression was measured by FACS. After which mice were injected intraperitoneally with either HU or TMTX with initial doses of HU of 200, 500 and 1000 mg/kg per day and initial doses of TMTX of 10, 25, 50 mg/kg with 2 injections per week. GFP expressing blood cells were measured once a week. (A) Irradiated mice, transplanted with bone marrow cells and transduced with a lentivector expressing GFP and the hydroxyurea resistance (GFP-HU).
In order to more directly assess the ability of HU and TMTX to select cells in vivo studies were undertaken in mice injected with transduced cells. […] Six to eight weeks later, blood samples were taken and GPF expression was measured by FACS. […] GFP expressing blood cells were measured once a week.

Structure (SMILES): NC(=O)NO [HU, Hydroxyurea]
- selection of transduced cells (GFP positive versus non-transduced, FACS) ([1]; 25 μM HU and 100 μM HU): modest selection
- transient increase in GFP-positive leukocytes ([2]; irradiated mice transplanted with bone marrow cells transduced with GFP-HU lentivector, hydroxyurea-treated, FIG. 3A): up to 8%
- circulating GFP positive cells ([2]; some treated animals, one week after HU injection, intraperitoneal, transient increase, FIG. 3): 5%-10%

Structure (SMILES): COc1cc(NCc2ccc3nc(N)nc(N)c3c2C)cc(OC)c1OC [TMTX, Trimetrexate]
- selection of transduced cells (GFP positive versus non-transduced, FACS) ([1]; 10 nM TMTX (tested at 1 nM and 10 nM)): significant selection
